For 69 compounds, IC50 results are on record in patent publication US9029559B2, “Substituted 3-heteroaroylamino-propionic acid derivatives and their use as pharmaceuticals” (SANOFI, priority 2011, dated 2015).

The target in this experiment is Recombinant human cathepsin A (Homo sapiens (Human), UniProt P10619). Put plainly: Cathepsin A inhibitory activity (cleavage of Bodipy FL-labeled bradykinin, microfluidic capillary electrophoresis). In kind it is biochemical. The note with it: for IC50: read-out: Activity [μM] (IC50, cathepsin A inhibitory activity).
The mark [1] stands for this setting: read-out: Activity (IC50, cathepsin A inhibition).
[2] abbreviates: read-out: Activity (IC50, cathepsin A inhibitory activity).
Setting [3] is: read-out: Activity (Cathepsin A inhibitory activity, IC50).

pIC50: −log10 of the molar value. Read-outs that look alike come from different tables or passages of the source. Bounds are passed on as bounds.

Sequence of Recombinant human cathepsin A (P10619 29-326): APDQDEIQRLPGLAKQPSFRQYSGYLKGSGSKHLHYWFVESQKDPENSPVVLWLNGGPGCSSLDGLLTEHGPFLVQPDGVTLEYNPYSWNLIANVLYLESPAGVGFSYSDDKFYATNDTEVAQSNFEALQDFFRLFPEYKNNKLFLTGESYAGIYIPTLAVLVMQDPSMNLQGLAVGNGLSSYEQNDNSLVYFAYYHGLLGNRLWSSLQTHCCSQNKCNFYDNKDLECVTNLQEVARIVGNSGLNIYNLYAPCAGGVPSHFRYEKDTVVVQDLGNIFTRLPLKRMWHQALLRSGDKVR
Sequence of Recombinant human cathepsin A (P10619 327-480): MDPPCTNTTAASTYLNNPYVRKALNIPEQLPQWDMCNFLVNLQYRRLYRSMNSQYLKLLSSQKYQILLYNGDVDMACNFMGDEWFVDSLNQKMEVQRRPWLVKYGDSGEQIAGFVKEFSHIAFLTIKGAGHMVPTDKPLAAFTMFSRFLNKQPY
Experimental: Pharmacological Tests a) Cathepsin A Inhibitory Activity
Briefly, cathepsin A was incubated at 10 μg/ml with cathepsin L at 1 μg/ml in activation buffer (25 mM 2-(morpholin-4-yl)-ethanesulfonic acid (MES), pH 6.0, containing 5 mM dithiothreitol (DTT)) for 15 min at 37° C.
The activated cathepsin A was diluted in assay buffer (25 mM MES, pH 5.5, containing 5 mM DTT) and mixed with the test compound (dissolved in assay buffer containing (v/v) 3% DMSO) or, in the control experiments, with the vehicle in a multiple assay plate. After incubation for 15 min at room temperature, as substrate then bradykinin carrying an N-terminal ®Bodipy FL (4,4-difluoro-5,7-dimethyl-4-bora-3a,4a-diaza-s-indacene-3-propionyl) label (JPT Peptide Technologies GmbH; dissolved in assay buffer) was added to the mixture. […] After incubation for 15 min at room temperature the reaction was stopped by the addition of stop buffer (130 mM 2-(4-(2-hydroxy-ethyl)-piperazin-1-yl)-ethanesulfonic acid, pH 7.4, containing (v/v) 0.013% ®Triton X-100, 0.13% Coating Reagent 3 (Caliper Life Sciences), 6.5% DMSO and 20 μM ebelactone B (Sigma, #E0886)).
Uncleaved substrate and product were then separated by a microfluidic capillary electrophoresis on a LabChip® 3000 Drug Discovery System (12-Sipper-Chip; Caliper Life Sciences) and quantified by determination of the respective peak areas. Substrate turnover was calculated by dividing product peak area by the sum of substrate and product peak areas, and the enzyme activity and the inhibitory effect of the test compound thus quantified.

In the case of `Cc1ccccc1[C@H](CC(=O)O)NC(=O)c1cncc(-c2cccc(C)c2C)c1` [compound 116, (S)-3-{[5-(2,3-Dimethyl-phenyl)-pyridine-3-carbonyl]-amino}-3-o-tolyl-propionic acid], the IC50 (in general, the concentration that inhibits the measured activity by half) turned out to be 1.01 µM.

Consider `O=C(O)CC(NC(=O)c1cccc(Cl)n1)c1ccccc1Cl` (stereo not drawn) [compound 540], for which the negative-log IC50 (pIC50) (usually the IC50 on a negative log10 scale, so that one unit is a factor of ten) under setting [1] is 5.80. With `Cc1ccccc1[C@H](CC(=O)O)NC(=O)c1cc(CC(C)C)nc(N)n1` [compound 52], under setting [2], the pIC50 was 5.43. On the same count and under the same terms, to `COc1ccc(C(=O)N[C@@H](CC(=O)O)c2ccccc2Cl)nc1-c1ccc(C(F)(F)F)cc1F` [compound 214] belongs 5.15. Turning to `COc1ccc(C(=O)N[C@@H](CC(=O)O)c2ccccc2Cl)nc1-c1ccc(C)cc1` [compound 336], the IC50 is 3.13 µM.

As for `COc1cc(OC)nc(Oc2cccnc2C(=O)NC(CC(=O)O)c2ccccc2Cl)n1` (stereo not drawn) [compound 615], under setting [3], the pIC50 is 5.45. On to `Cc1ccccc1[C@H](CC(=O)O)NC(=O)c1ccccn1` [compound 5], for which, under setting [2], the pIC50 was 5.40.

Take `O=C(O)CC(NC(=O)c1cccc(F)n1)c1ccccc1Cl` (stereo not drawn) [compound 531]: under setting [1], the pIC50 is 5.12.

`COc1ccc(C(C)(C)C)cc1-c1nc(C(=O)N[C@@H](CC(=O)O)c2ccccc2F)ccc1OC` [compound 308]: the IC50 was greater than 10 µM. Regarding `Cc1cc(C)nc(C(=O)NC(CC(=O)O)c2ccccc2Cl)c1` (stereo not drawn) [compound 533], under setting [1], the negative logarithm of the IC50 (pIC50) was 5.20. Consider `O=C(O)CC(NC(=O)c1cc(O)ccn1)c1ccccc1Cl` (stereo not drawn) [compound 529], for which the pIC50 under setting [1] was 5.29. Regarding `COc1ccc(C(=O)N[C@@H](CC(=O)O)c2ccccc2F)nc1-c1ccc(C)cc1` [compound 260], under setting [2], the pIC50 was 5.29. As for `COc1ccc(C(=O)N[C@@H](CC(=O)O)c2ccccc2C)nc1-c1cc(F)cc(F)c1` [compound 362], the half-maximal inhibitory concentration (IC50) worked out at 1.43 µM. With `COc1ccc(C(=O)N[C@@H](CC(=O)O)c2ccc(C)cc2)nc1-c1cc(F)cc(F)c1` [compound 207], the IC50 came to 2.65 µM. In the case of `COc1ccc(C(=O)N[C@@H](CC(=O)O)c2ccccc2Cl)nc1-c1ccccc1C(=O)N(C)C` [compound 454], the pIC50 under setting [2] is 5.60. As to `COc1ccc(C(=O)N[C@@H](CC(=O)O)c2ccccc2F)nc1-c1cccnc1` [compound 284], the pIC50 under setting [2] was less than 5.00. Regarding `Cc1ccccc1[C@H](CC(=O)O)NC(=O)c1cccc(-c2ccc(Cl)cc2)n1` [compound 136], the half-maximal inhibitory concentration (IC50) worked out at 4.85 µM.

As for `Cc1ccccc1[C@H](CC(=O)O)NC(=O)c1cccc(-c2cccc(Cl)c2)n1` [compound 140], the IC50 amounted to 1.57 µM. Consider `O=C(O)C[C@H](NC(=O)c1cccc(-c2ccccc2Cl)n1)c1cccc(Cl)c1Cl` [compound 610], for which, under setting [3], the pIC50 is 5.63. As for `COc1ccc(C(=O)N[C@@H](CC(=O)O)c2ccc(C)cc2)nc1-c1ccc(C)o1` [compound 237], the pIC50 under setting [2] was 5.45. Regarding `COc1ccc(C(=O)N[C@@H](CC(=O)O)c2ccccc2Cl)nc1-c1cccnc1` [compound 444], under setting [2], the negative-log IC50 (pIC50) was 5.00. As for `O=C(O)CC(NC(=O)c1ccnc(N2CCCC2)c1)c1ccccc1Cl` (stereo not drawn) [compound 553], the pIC50 under setting [1] was 4.95. Regarding `COc1ccc(C(=O)N[C@@H](CC(=O)O)c2ccc(C)cc2)nc1-c1ccc(C)cc1C` [compound 224], the pIC50 under setting [2] is 5.47. Turning to `COc1ccc(C(=O)N[C@@H](CC(=O)O)c2ccc(C)cc2)nc1-c1ccc(C)cc1` [compound 188], the IC50 is 4.45 µM. Consider `COc1ccc(C(=O)N[C@@H](CC(=O)O)c2ccc(C)cc2)nc1-c1ccc(F)c(F)c1` [compound 208], for which the IC50 came to 7.42 µM. Turning to `COc1ncc(C(=O)N[C@@H](CC(=O)O)c2ccccc2C)cc1-c1ccc(C)cc1` [compound 410], under setting [2], the pIC50 is 5.27. Consider `COc1cc(F)ccc1-c1cncc(C(=O)N[C@@H](CC(=O)O)c2ccccc2C)c1` [compound 85], for which, under setting [2], the pIC50 was 5.11.

Take `O=C(O)C[C@H](NC(=O)c1cccc(-c2ccccc2Cl)n1)c1ccccc1C(F)(F)F` [compound 612]: the pIC50 under setting [3] is 5.78. Take `O=C(O)CC(NC(=O)c1ncccc1F)c1ccccc1Cl` (stereo not drawn) [compound 530]: the pIC50 under setting [1] was 5.28. As for `Cc1ccccc1[C@H](CC(=O)O)NC(=O)c1cncc(-c2ccc(Cl)cc2Cl)c1` [compound 61], the pIC50 under setting [2] was 5.29. With `Cc1ccccc1[C@H](CC(=O)O)NC(=O)c1nc(F)ccc1F` [compound 53], the pIC50 under setting [2] was 5.55. With `Cc1ccccc1[C@H](CC(=O)O)NC(=O)c1cc(-c2ccccc2)ccn1` [compound 39], the negative logarithm of the IC50 (pIC50) under setting [2] was 5.97. As for `O=C(O)CC(NC(=O)c1ccncc1)c1ccccc1Cl` (stereo not drawn) [compound 524], under setting [1], the pIC50 was 4.99. Consider `COc1ncc(C(=O)N[C@@H](CC(=O)O)c2ccccc2C)cc1-c1cccc(C)c1` [compound 417], for which, under setting [2], the pIC50 is 5.31. Regarding `Cc1ccccc1[C@H](CC(=O)O)NC(=O)c1cc(N(C)C)nc(N(C)C)n1` [compound 13], the pIC50 under setting [2] was 5.00. As for `Cc1ccccc1[C@H](CC(=O)O)NC(=O)c1cccc(-c2ccc(C(F)(F)F)cc2)n1` [compound 138], the IC50 came to 6.83 µM. Turning to `COc1ccc(C(=O)N[C@@H](CC(=O)O)c2ccccc2Cl)nc1-c1cc(C)cc(Cl)c1` [compound 483], under setting [2], the pIC50 was 5.02. For the compound `COc1ccc(C(=O)N[C@@H](CC(=O)O)c2ccc(C)cc2)nc1-c1ccc2ccccc2c1` [compound 195], the IC50 was 8.83 µM. For `COc1ccc(-c2cccc(C(=O)N[C@@H](CC(=O)O)c3ccccc3C)n2)cc1` [compound 45], the pIC50 under setting [2] is 5.51.

As to `O=C(O)CC(NC(=O)c1ccc2nc[nH]c2n1)c1ccccc1Cl` (stereo not drawn) [compound 542], the pIC50 under setting [1] was 4.97. Take `COc1ccc(C(=O)N[C@@H](CC(=O)O)c2ccccc2Cl)nc1-c1ccc(F)c(Cl)c1` [compound 332]: the IC50 is 5.24 µM.

`Cc1cc(F)ccc1-c1cncc(C(=O)N[C@@H](CC(=O)O)c2ccccc2C)c1` [compound 82]: the negative logarithm of the IC50 (pIC50) under setting [2] is 5.51. For the compound `Cc1ccccc1[C@H](CC(=O)O)NC(=O)c1cccc(-c2ccc(C(=O)N(C)C)c(Cl)c2)n1` [compound 174], the IC50 came to 1.59 µM. As for `COc1ccc(C(=O)N[C@@H](CC(=O)O)c2ccccc2C)nc1-c1cncnc1` [compound 372], the IC50 was 8.88 µM. As for `COc1ccc(C(=O)N[C@@H](CC(=O)O)c2ccccc2Cl)nc1-c1ccc(F)c(C)c1` [compound 451], the pIC50 under setting [2] is 5.42.

For the compound `O=C(O)C[C@@H](Cc1ccccc1)NC(=O)c1cccc(-c2ccccc2F)n1` [compound 561], the pIC50 under setting [1] is 5.27. Take `COc1ccc(F)c(-c2nc(C(=O)N[C@@H](CC(=O)O)c3ccc(C)cc3)ccc2OC)c1` [compound 239]: the pIC50 under setting [2] was 5.94. With `COc1ccc(C(=O)N[C@@H](CC(=O)O)c2ccc(C)cc2)nc1-c1cccc(-c2ccccc2)c1` [compound 204], the 50% inhibitory concentration (IC50) is 1.4 µM.

On to `Cc1ccnc(C(=O)N[C@@H](CC(=O)O)c2ccccc2C)c1` [compound 14], for which the pIC50 under setting [2] was 5.36. Still for that read-out and setting: to `Cc1ccccc1[C@H](CC(=O)O)NC(=O)c1ccnc(-c2ccccc2F)c1` [compound 97] belongs 5.57. Take `COc1ncc(C(=O)N[C@@H](CC(=O)O)c2ccccc2Cl)cc1-c1cccc(Cl)c1` [compound 392, (S)-3-(2-Chloro-phenyl)-3-{[5-(3-choro-phenyl)-6-methoxy-pyridine-3-carbonyl]-amino}-propionic acid]: the IC50 was 10.3 µM. `COc1ccc(C(=O)N[C@@H](CC(=O)O)c2ccccc2Cl)nc1-c1ccc(F)nc1` [compound 453]: the pIC50 under setting [2] was 5.19. In the case of `COc1cccc(-c2cc(C(=O)N[C@@H](CC(=O)O)c3ccccc3C)cnc2OC)c1` [compound 412], under setting [2], the pIC50 is 5.08. `Cc1ccccc1[C@H](CC(=O)O)NC(=O)c1cncc(-c2ccccc2C(F)(F)F)c1` [compound 66]: the pIC50 under setting [2] was 5.37. Turning to `COc1ccc(C(=O)N[C@@H](CC(=O)O)c2ccccc2Cl)nc1-c1cc(F)cc(F)c1` [compound 439], under setting [2], the pIC50 is 5.62.

As to `COc1ccc(C(=O)N[C@@H](CC(=O)O)c2ccccc2Cl)nc1-c1ccc(C#N)cc1F` [compound 494], under setting [1], the pIC50 was 4.94. As to `COc1ccc(C(=O)N[C@@H](CC(=O)O)c2ccccc2F)nc1-c1cccc(F)c1` [compound 266], the negative logarithm of the IC50 (pIC50) under setting [2] is 5.90.

`COc1ccc(C(=O)N[C@@H](CC(=O)O)c2ccc(C)cc2)nc1-c1ccc(C(C)=O)s1` [compound 210]: the half-maximal inhibitory concentration (IC50) turned out to be 7.52 µM. On to `COc1ccc(C(=O)N[C@@H](CC(=O)O)c2ccccc2Cl)nc1-c1ccc(C)cc1C` [compound 450], for which the negative-log IC50 (pIC50) under setting [2] was 5.80. Regarding `COc1ccc(C(=O)N[C@@H](CC(=O)O)c2ccccc2F)nc1-c1cccc(C#N)c1` [compound 273], the pIC50 under setting [2] is 5.02.

For the compound `COc1ccc(C(=O)N[C@@H](CC(=O)O)c2ccc(C)cc2)nc1-c1ccccc1C(=O)N(C)C` [compound 228], the pIC50 under setting [2] is 5.40. As for `Cc1ccccc1[C@H](CC(=O)O)NC(=O)c1cccc(-c2c(C)noc2C)n1` [compound 159], the IC50 stood at 14.4 µM. Consider `COc1ccc(C(C)(C)C)cc1-c1nc(C(=O)N[C@@H](CC(=O)O)c2ccc(C)cc2)ccc1OC` [compound 240], for which the negative logarithm of the IC50 (pIC50) under setting [2] is less than 5.00.

With `Cc1cccc([C@H](CC(=O)O)NC(=O)c2cccc(-c3ccccc3F)n2)c1` [compound 560], under setting [1], the pIC50 was 4.89. In the case of `COc1ncc(C(=O)N[C@@H](CC(=O)O)c2ccccc2Cl)cc1-c1ccc(F)cc1C` [compound 404], under setting [2], the negative logarithm of the IC50 (pIC50) is 5.15. As to `COc1ncc(C(=O)N[C@@H](CC(=O)O)c2ccccc2C)cc1-c1ccc(Cl)cc1` [compound 408], under setting [2], the pIC50 is 5.24.

As for `COc1ccc(C(=O)N[C@@H](CC(=O)O)c2ccccc2Cl)nc1-c1ccc2ccccc2c1` [compound 427, (S)-3-(2-Chloro-phenyl)-3-[(5-methoxy-6-naphthalen-2-yl-pyridine-2-carbonyl)-amino]-propionic acid], the pIC50 under setting [2] was 5.15.

`Cc1cccc(C(=O)N[C@@H](CC(=O)O)c2ccccc2C)n1` [compound 10]: the pIC50 under setting [2] is 5.91.

`COc1ccc(C(=O)N[C@@H](CC(=O)O)c2ccccc2C)nc1-c1ccc2ccn(C)c2c1` [compound 380]: the IC50 was 5.33 µM.
